Experiments:
Aurora kinase A = target: T1, Aurora kinase A (Homo sapiens, UniProt O14965); assay: Inhibition of hexahistidine tagged recombinant Aurora A expressed in Hi-5 cells assessed as ATP remaining after 2 hrs by bioluminescence
T1 sequence (O14965 whole entry): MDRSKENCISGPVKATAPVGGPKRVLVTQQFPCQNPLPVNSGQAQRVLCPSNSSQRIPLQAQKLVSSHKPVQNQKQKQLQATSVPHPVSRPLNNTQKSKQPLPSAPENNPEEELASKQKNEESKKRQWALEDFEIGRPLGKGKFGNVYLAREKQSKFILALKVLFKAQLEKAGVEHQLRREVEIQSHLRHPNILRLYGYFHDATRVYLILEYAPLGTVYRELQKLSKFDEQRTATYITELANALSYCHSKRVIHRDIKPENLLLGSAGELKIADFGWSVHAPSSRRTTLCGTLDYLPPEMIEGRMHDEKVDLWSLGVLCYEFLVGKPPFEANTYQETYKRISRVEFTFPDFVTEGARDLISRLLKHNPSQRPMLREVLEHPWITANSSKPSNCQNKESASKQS

Aurora kinase B = Aurora kinase B (Homo sapiens, UniProt Q96GD4); assay: Inhibition of GST tagged recombinant Aurora B expressed in Hi-5 cells after 1 hr by TRF assay
Sequence of Aurora kinase B (Q96GD4 whole entry): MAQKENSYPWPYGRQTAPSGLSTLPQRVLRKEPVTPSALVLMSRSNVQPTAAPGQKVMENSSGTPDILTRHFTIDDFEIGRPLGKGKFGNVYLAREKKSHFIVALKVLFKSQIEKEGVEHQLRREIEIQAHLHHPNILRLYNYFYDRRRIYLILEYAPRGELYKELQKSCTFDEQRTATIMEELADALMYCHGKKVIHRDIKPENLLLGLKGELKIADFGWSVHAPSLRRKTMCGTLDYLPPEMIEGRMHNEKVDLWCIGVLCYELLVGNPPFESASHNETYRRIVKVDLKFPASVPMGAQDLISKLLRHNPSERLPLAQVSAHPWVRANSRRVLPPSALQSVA

[1] = Selectivity ratio of IC50 for recombinant Aurora A to IC50 for recombinant Aurora B

| IC50 (Aurora kinase A) | IC50 (Aurora kinase B) | Ratio IC50 [1] | Structure (SMILES) |
| --- | --- | --- | --- |
| 240 nM | 110 nM | – | Cc1cc2[nH]nc(C#Cc3ccccc3)c2cc1NC(=O)Cc1cccs1 |
| 42 nM | 180 nM | 0.23 | COc1ccc(OC)c(CC(=O)Nc2cc3c(/C=C/c4ccccc4)n[nH]c3cc2C)c1 |
| 13 nM | 46 nM | 0.28 | Cc1cc2[nH]nc(/C=C/c3cccc(NC(=O)N4CCN(C)CC4)c3)c2cc1NC(=O)Cc1cccs1 |
| 91 nM | 110 nM | 0.8 | O=C(Cc1cccs1)Nc1cc2c(/C=C/c3ccccc3)n[nH]c2cc1N1CCCC1 |
| 17 nM | 47 nM | – | Cc1cc2[nH]nc(/C=C/c3ccccc3)c2cc1NC(=O)Cc1cccs1 |
| 160 nM | 46 nM | 3.5 | C(=C\c1n[nH]c2cc(N3CCCC3)c(-c3ccncc3)cc12)/c1ccccc1 |
| 350 nM | 31 nM | 11.3 | Cc1cc(N)cc(-c2ccc3[nH]nc(/C=C/c4cccc(CN5CCN(C)CC5)c4)c3c2C)c1 |
| 140 nM | 62 nM | 2.3 | CN1CCN(C(=O)Nc2cccc(/C=C/c3n[nH]c4cc(N5CCCC5)c(NS(C)(=O)=O)cc34)c2)CC1 |
| 640 nM | 1640 nM | – | O=C(Cc1ccccc1)Nc1ccc2[nH]nc(C3CC3c3ccccc3)c2c1 (centres undefined) |
| 35 nM | 31 nM | 1.1 | O=S(=O)(Cc1ccccc1)Nc1ccc2[nH]nc(/C=C/c3ccccc3)c2c1 |
| 1900 nM | 99 nM | 19 | Cc1c(NC(=O)Cc2cccs2)ccc2[nH]nc(/C=C/c3cccc(CN4CCN(C)CC4)c3)c12 |
| 19 nM | – | – | Cc1cc2[nH]nc(/C=C/c3ccccc3)c2cc1NC(=O)Cc1ccccc1 |
| 35 nM | 26 nM | 1.3 | CN1CCN(Cc2cccc(/C=C/c3n[nH]c4ccc(NC(=O)Cc5cccs5)cc34)c2)CC1 |
| 200 nM | 81 nM | 2.5 | Nc1cc2c(/C=C/c3ccccc3)n[nH]c2cc1N1CCCC1 |
| 620 nM | 130 nM | 5 | C(=C\c1n[nH]c2cc(N3CCCC3)c(NCc3ccccn3)cc12)/c1ccccc1 |
| 22 nM | – | – | O=C(Cc1ccccc1)Nc1ccc2[nH]nc(/C=C/c3ccccc3)c2c1 |
| 79 nM | 130 nM | 0.6 | Cc1cc2[nH]nc(/C=C/c3cccc(CN4CCN(C)CC4)c3)c2cc1NC(=O)Cc1cccs1 |
| 240 nM | 110 nM | 2.2 | O=[N+]([O-])c1cc2c(/C=C/c3ccccc3)n[nH]c2cc1N1CCCC1 |
| 1700 nM | – | – | O=C(Cc1ccccc1)Nc1ccc2[nH]nc(CCc3ccccc3)c2c1 |
| > 10000 nM | 810 nM | > 12 | CN1CCN(c2cc3[nH]nc(/C=C/c4ccccc4)c3cc2NCc2ccccn2)CC1 |
| 280 nM | 59 nM | 4.7 | Cc1c(C#N)ccc2[nH]nc(/C=C/c3cccc(CN4CCN(C)CC4)c3)c12 |
